Test results taken from PMC3297008, “Novel Marine Phenazines as Potential Cancer Chemopreventive and Anti-Inflammatory Agents” (Marine Drugs, 2012).

What was measured:
NFκB = assay: TNF-α-induced NFκB luciferase reporter assay in stably-transfected human embryonic kidney cells 293; assay type: cell-based; conditions: for IC50: human embryonic kidney cells 293 NFκB reporter, TNF-α 2 ng/mL, 6 h, read-out: IC50, inhibition of TNF-α-induced NFκB activity
Description: Activation of NFκB may promote cell proliferation or prevent cell death through apoptosis. Inhibition of NFκB signaling has potential application for the treatment or prevention of cancer; some inhibitors are known. […] […].
We employed human embryonic kidney cells 293 Panomic (Fremont, CA, USA) for monitoring changes occurring along the NFκB pathway. Stable constructed cells were seeded into sterile 96-well plate at 20 × 10^3 cells per well. Cells maintained in Dulbecco’s modified Eagle’s medium (DMEM) Invitrogen Co. (Carlsbad, CA, USA), supplemented with 10% FBS, 100 units/mL penicillin, 100 µg/mL streptomycin, 2 mM L-glutamine. After 48 h incubation, the medium was replaced and cells were treated with various concentration of test substances dissolved in PBS. TNF-α (Human, Recombinant, E. coli, Calbiochem, Gibbstown, NJ, USA) was used as an activator at a concentration of 2 ng/mL (0.14 nM). The plate was incubated for 6 h. Spent medium was discarded and the cells were washed once with PBS. Cells were lysed using 50 µL (for 96-well plate) Reporter Lysis Buffer from Promega, by incubating for 5 min on a shaker, and stored at −80 °C. The luciferase assay was performed using the Luc assay system from Promega (Madison, WI, USA). The gene product, luciferase enzyme, reacts with luciferase substrate, emitting light which was detected using a luminometer (LUMIstar Galaxy BMG). Data for NFκB constructs are expressed as IC50 values (i.e., concentration required to inhibit TNF-activated NFκB activity by 50%).

ovine COX-1 = target: T1, ovine COX-1 (Ovis aries, UniProt P05979); assay: COX-1 inhibition assay (LC-MS/MS of PGE2); assay type: biochemical
T1 sequence (P05979 25-600): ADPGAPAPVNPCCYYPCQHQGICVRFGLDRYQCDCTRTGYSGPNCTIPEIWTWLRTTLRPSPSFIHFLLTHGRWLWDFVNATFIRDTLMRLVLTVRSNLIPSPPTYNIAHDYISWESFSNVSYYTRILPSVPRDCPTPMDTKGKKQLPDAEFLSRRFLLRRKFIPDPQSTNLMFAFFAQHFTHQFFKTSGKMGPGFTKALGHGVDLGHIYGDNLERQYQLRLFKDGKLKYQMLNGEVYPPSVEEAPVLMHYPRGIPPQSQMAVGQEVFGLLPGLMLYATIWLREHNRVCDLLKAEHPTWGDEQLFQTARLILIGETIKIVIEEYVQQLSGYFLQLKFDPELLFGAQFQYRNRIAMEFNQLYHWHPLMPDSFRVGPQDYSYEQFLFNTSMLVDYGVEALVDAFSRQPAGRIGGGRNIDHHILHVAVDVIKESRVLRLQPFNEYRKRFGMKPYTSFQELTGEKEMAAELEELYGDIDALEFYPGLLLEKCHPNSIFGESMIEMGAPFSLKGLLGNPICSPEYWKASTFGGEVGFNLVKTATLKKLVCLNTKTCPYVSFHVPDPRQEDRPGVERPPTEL
Description: Each COX reaction was initiated by adding 20 µL of arachidonic acid in Tris-HCl (pH 8.0) buffer to give a final concentration of 5 µM. The reaction was terminated after 2 min by adding 20 µL of 2.0 M HCl. The surrogate standard PGE2-d4 was added to correct for errors or degradation during sample handling and for variation in injection volume or instrument response during LC-MS/MS. After 30 min, PGE2 and its surrogate standard were extracted from each incubation mixture using 800 µL of hexane/ethyl acetate (50:50, v/v). The organic phase was removed, evaporated to dryness, and reconstituted in 100 µL methanol/water (50:50, v/v) for analysis using LC-MS/MS with an Applied Biosystems AP4000 triple quadrupole mass spectrometer as described previously. The concentration of PGE2 in each sample was measured using LC-MS/MS, and the percent of COX inhibition by each test solution was determined by comparing the amount of PGE2 produced in the experiment with that produced in the negative control incubation. For IC50 value determination, 12 different concentrations of each inhibitor were assayed three times. The IC50 value of each inhibitor toward COX-1 or COX-2 was determined by plotting and analyzing the inhibition curve data using Graph Pad Prism 5 software. The selectivity of each inhibitor was calculated as the ratio of the IC50 values (COX-1/COX-2).

iNOS mRNA expression = iNOS mRNA expression in LPS-treated RAW 264.7 cells (real time quantitative PCR); assay type: cell-based; conditions: 50 µM
Source text: Figure 2 Effect of phenazines on COX-2 (black) and iNOS (gray) mRNA expression in RAW 264.7 cells. Total RNA was isolated using the TRIZOL® Reagent method (Invitrogen) from RAW 264.7 cells (2 × 10^5 cells/well) after treatment with samples. cDNA was synthesized using the RT^2 First Strand Kit (C-03, SA Biosciences) protocol. cDNA was used for quantitative real time PCRs with fluorescent Power SyBR® Green PCR master mix (Applied Biosystems), employing GAPDH, iNOS, COX-2 specific primers, and a 7300 Real Time PCR System (Applied Biosystems). The results were derived from two independent RNA preparations employing identical triplicates in each analysis and quantitated using GAPDH as the internal control, following the manufacturer’s instructions. (A) GAPDH standard curve for quantitation of iNOS and COX-2 expression; (B) Levels of COX-2 (black) and iNOS (gray) mRNA expression. The concentration and duration of treatment had no significant effect on the viability of Raw 264.7 cells.
Total mRNA samples were isolated, and cDNA was amplified with specific primers, using GAPDH as housekeeping gene. LPS induced the expression of COX-2 and iNOS mRNA by approximately 11- and 24-fold, respectively. […]
RAW 264.7 cells (2 × 10^5 cells/well) were treated with test samples and total RNA was isolated with TRIZOL® Reagent (Invitrogen). […] The results were derived from two independent RNA preparations employing identical triplicates in each analysis and quantified using GAPDH as the internal control, following the manufacturer’s instructions. The fluorescence intensity (Rn) corresponding to the cycle of threshold value (Ct) is used to quantitate a given mRNA, employing the GAPDH standard curve (Figure 3A). The equation Y = −3.9408 X + 31.791 was used to quantify the relative mRNA content, where Y represents the number of cycles corresponding to the Ct (i.e., fluorescence intensity for a given mRNA species), and X represents the log copy number (C0) from which the relative content of mRNA was quantitated. […]

[1] = test system: NO production in LPS-induced RAW 264.7 cells; assay: LPS-induced NO production in RAW 264.7 cells (Griess reagent); conditions: for NO % inhibition (50 µM): LPS-induced RAW 264.7 cells; for inhibition at 50 µM / IC50: Mus musculus; for inhibition at 50 µM: RAW264.7, read-out: NO % inhibition (50 µM), LPS-induced RAW 264.7 cells, 50 µM; for IC50: RAW264.7, read-out: NO IC50
Description: The amount of nitrite was measured using the Griess reagent to assess the NO production [47, 48]. […] The cells were treated with various concentrations of compounds dissolved in phenol-red free DMEM for 30 min followed by 1 μg/mL of LPS treatment for 24 h. […] The standard curve was created by using known concentrations of sodium nitrite.

Row | SMILES | IC50 (NFκB) | IC50 (ovine COX-1) | suppression of iNOS mRNA expression (iNOS mRNA expression) | NO % inhibition (50 µM) [1] | inhibition at 50 µM [1] | IC50 [1] | enhancement of NFκB inhibitory activity by bromination at position-2 (NFκB; phenazine 1 compared with lavanducyanin)
1 | CC1=C(Cn2c3cccc(=O)c-3nc3ccccc32)CCC(C)(C)C1 [Lavanducyanin 3, lavanducyanin] | 16.3 µM | 30 ± 1.08 µM | 46% | 97 ± 0.7% | > 90% | 8 ± 0.39 µM | 
2 | CC(C)=CCn1c2ccc(Br)c(=O)c-2nc2ccccc21 [Phenazine 2] | 24.2 µM | 5.6 ± 0.61 µM | 43% | 98.1 ± 0.5% | > 90% | 15.1 ± 2.7 µM | 
3 | CC1=C(Cn2c3ccc(Br)c(=O)c-3nc3ccccc32)CCC(C)(C)C1 [Phenazine 1] | 4.1 µM | 11 ± 0.53 µM | 21% | 40.1 ± 5% | 40% | > 48.6 µM | approximately 4 fold
